In patent publication US11358972B2, “Pentacyclic heterocycles” (Eisai R&D Management Co., Ltd., priority 2019, dated 2022):

Columns and labels:
[1] = test system: Choline Acetyltransferase (ChAT) mRNA; assay: Measurement of choline acetyltransferase (ChAT) mRNA expression levels in the rat septal area; type: in vivo; conditions: po, SD male rats, medial septum, 24 hours after administration, read-out: Amount (%) increased from the amount of ChAT mRNA expression levels in the vehicle administration group; for change in vivo at 3 mg/kg: 3 mg/kg orally; for change in vivo at 1 mg/kg: 1 mg/kg orally
Method: Measurement of Choline Acetyltransferase (ChAT) mRNA Expression Levels in the Rat Septal Area (1) Compound Administration
In this study, Sprague-Dawley male rats (Charles River Laboratories Japan, Inc.) with a body weight of about 250 to 350 g were used. The test compound was dissolved in 0.01 mol/L hydrochloric acid, and orally administered.
At 24 hours after the administration of the compound, the whole brain tissue was collected under pentobarbital anesthesia. The medial septum was isolated from whole brain on ice and frozen with liquid nitrogen, and then stored at −80° C.
(3) Measurement of ChAT mRNA Expression Levels
For RNA purification, RNeasy™ Plus Mini Kit (#74136: QIAGEN) was used in this study. RNA purification was performed by the method described in the kit After RNA purification, the total RNA concentration was measured by using QIAxpert Instrument (QIAGEN). cDNA was synthesized using SuperScript™ VILO™ cDNA Synthesis Kit (#11754: Thermo Fisher Scientific). The synthesis of cDNA was performed by the method described in the kit. The synthesized cDNA was diluted 4 times with RNase free water, and the diluted cDNA solution was used as a sample. Taqman™ Universal PCR Master Mix (#4304437: Thermo Fisher Scientific), Taqman™ Gene Expression Assays, INVENTORIED (#4331182: Thermo Fisher Scientific), RNase free water, and the cDNA solution were mixed in amounts of 10 μL, 1 μL, 4 μL, and 5 μL, respectively, and the resulting mixture was used as a measurement sample solution. Quantitative polymerase chain reaction (qPCR) was conducted using ABI PRISM™ 7900HT (Thermo Fisher Scientific) by a fluorescence probe method. Analysis was performed by SDS 2.4 (Thermo Fisher Scientific). The results were calculated by the percentage of the amount of ChAT mRNA expression levels in the compound administration group increased from the amount of ChAT mRNA expression levels in the vehicle administration group.

[2] = test system: Rat primary septal neuron culture; assay: Measurement of acetylcholine (ACh) release in the rat primary septal neuron culture system; type: cell-based; conditions: 24 h, rat primary septal neurons, with NGF, ACh release measured by HPLC one day after compound addition, read-out: Concentration (μM) showing a 20% or more increase from the amount of ACh in the control group
Text: Measurement of Acetylcholine (ACh) Release in the Rat Primary Septal Neuron Culture System
(1) Rat Primary Septal Neuron Culture
The septal area was isolated from Sprague-Dawley (SD) rats (Charles River Laboratories Japan, Inc.) at a fetal age of 18 days, and cultured. Specifically, fetuses were removed from pregnant rats under isoflurane anesthesia. The brain was extracted from each fetus, and immersed in ice-cooled L-15 medium (11415-064, Thermo Fisher Scientific). The septal area was dissected from the extracted brain under a stereoscopic microscope. The dissected septal area was treated in 0.25% trypsin (15050-065, Thermo Fisher Scientific) and 0.01% DNase (D5025-150KU, Sigma) at 37° C. for 30 minutes, thereby dispersing the cells. In this case, the enzyme reaction was terminated by adding inactivated horse serum (26050-088, Thermo Fisher Scientific). The enzyme-treated solution was centrifuged at 1000 rpm for 3 minutes, and the supernatant was removed. A medium in an amount of 10 mL was added to the obtained cell mass. The medium used was Dulbecco's Modified Eagle's Medium (044-29765, WAKO) supplemented with N2 supplement (17502-048, Thermo Fisher Scientific), 1 mM sodium pyruvate (11360-070, Thermo Fisher Scientific), and Penicillin-Streptomycin (15140-1221, Thermo Fisher Scientific). The cells of the cell mass to which the medium was added were redispersed by gentle pipetting, and then centrifuged again at 1000 rpm for 3 minutes, and the supernatant was removed. The medium in an amount of 10 mL was added to the obtained cell mass, and the cell dispersion was filtered through a 40-μm nylon mesh (Cell Strainer) to remove the cell mass, thereby obtaining a neuronal cell suspension. The neuronal cell suspension was diluted with the medium, and 10% inactivated bovine serum (26140-079, Thermo Fisher Scientific) and 10% inactivated horse serum were added. Thereafter, 100 μL/well of the suspension was seeded in a 96-well plate (354461, CORNING) pre-coated with poly-D-lysine so that the initial culture density was 1.2×10^5 cells/cm^2. After the seeded cells were cultured under 5% CO2-95% air in a 37° C. incubator for 2 days, the entire medium was replaced with 120 μL of fresh medium, and the cells were subsequently cultured for 5 days.
On the 7th day of culture, compounds were added in the following manner. A solution of the test compound in DMSO was diluted with the medium so that the concentration was 10 times higher than the final concentration. Nerve Growth Factor (450-01, PEPRO TECH, INC.) was prepared at […]. These two solutions were added each in an amount of 15 μL/well, and the mixture was mixed well. The final DMSO concentration was 0.1% or less. Moreover, only DMSO and NGF were added to the control group.
(3) ACh Release Measurement
One day after the compound addition, an amount of ACh release was measured by HPLC in the following manner. A warmed buffer was added at 100 μL/well to the well after the medium was eliminated, and the buffer was immediately removed. Thereafter, a buffer to which 10 μm choline, 10 μm physostigmine, and 6 mM KCl were added was added at 120 μL/well. The buffer was prepared by adding 125 mM NaCl, 25 mM 4-(2-hydroxyethyl)-1-piperazineethanesulfonic acid, 1.2 mM KH2PO4, 1.2 mM MgSO4, 2.2 mM CaCl2 (2H2O), and 10 mM glucose to sterilized water, and the final pH of the solution was set to 7.4. After the 96-well plate to which the buffer was added was incubated under 5% CO2-95% air in a 37° C. incubator for 40 minutes, 80 μL of buffer was collected. An internal standard solution IPHC (5×10^−7 M) was added in an amount of 6 μL to the collected buffer, and the buffer was transferred to a tube for HPLC measurement and subjected to HPLC measurement. […]

| SMILES | change in vivo at 3 mg/kg [1] | minimal effective concentration [2] | change in vivo at 1 mg/kg [1] | change in vivo at 10 mg/kg ([1]; 10 mg/kg orally) | change in vivo at 0.3 mg/kg ([1]; 0.3 mg/kg orally) |
| --- | --- | --- | --- | --- | --- |
| CN1Cc2nc3c(oc4ccccc43)c(=O)n2[C@@H]2CN(CCF)C[C@H]2C1=O (relative stereo) [Example 17, (−)-(3a,14a-trans)-2-(2-fluoroethyl)-5-methyl-2,3,3a,5,6,14a-hexahydro-1H-benzofuro[3′,2′:4,5]pyrimido[1,2-a]pyrrolo[3,4-f][1,4]diazepine-4,13-dione] | 44.6% | 0.03 µM |  |  |  |
| CN1CCc2c(sc3nc4n(c(=O)c23)C(C)(C)CC(=O)N2CCCC42)C1 (single isomer, unassigned; (+)) [Example 2, (+)-7,7,12-trimethyl-1,2,3,6,7,10,11,12,13,15b-decahydropyrido[4″,3″:4′,5′]thieno[2′,3′:4,5]pyrimido[1,2-a]pyrrolo[2,1-c][1,4]diazepine-5,9-dione] | 53.6% | 0.03 µM |  |  |  |
| COCCN1CCc2c(sc3nc4n(c(=O)c23)C(C)(C)CC(=O)N2CCCC42)C1 (single isomer, unassigned; (-)) [Example 13, (−)-12-(2-methoxyethyl)-7,7-dimethyl-1,2,3,6,7,10,11,12,13,15b-decahydro-5H,9H-pyrido[4″,3″:4′,5′]thieno[2′3′:4,5]pyrimido[1,2-a]pyrrolo[2,1-c][1,4]diazepine-5,9-dione] |  | 0.03 µM | 59.7% |  |  |
| CN1Cc2nc3c(oc4ccccc43)c(=O)n2[C@@H]2CCC[C@@H]2C1=O [Example 1, (3aS,14aR)-5-methyl-3,3a,5,6-tetrahydro-1H-benzofuro[3′,2′:4,5]pyrimido[1,2-a]cyclopenta[f][1,4]diazepine-4,13(2H,14aH)-dione] |  | 0.03 µM |  | 76% |  |
| CN1Cc2nc3c(oc4cc(F)ccc43)c(=O)n2[C@@H]2CCC[C@@H]2C1=O [Example 3, (3aS,14aR)-10-fluoro-5-methyl-3,3a,5,6-tetrahydro-1H-benzofuro[3′,2′:4,5]pyrimido[1,2-a]cyclopenta[f][1,4]diazepine-4,13(2H,14aH)-dione] |  | 0.03 µM | 53.7% |  |  |
| Cc1cc(C)c2c(n1)oc1c(=O)n3c(nc12)CN(C)C(=O)[C@H]1CCC[C@H]13 [Example 4, (3aS,14aR)-5,8,10-trimethyl-3,3a,5,6-tetrahydro-1H-cyclopenta[f]pyrido[3″,2″:4′,5′]furo[3′,2′:4,5]pyrimido[1,2-a][1,4]diazepine-4,13(2H,14aH)-dione] |  | 0.1 µM | 51.5% |  |  |
| CN1Cc2nc3c(oc4cc(F)ccc43)c(=O)n2[C@@H]2CCC[C@H]2C1=O [Example 5, (3aR,14aR)-10-fluoro-5-methyl-3,3a,5,6-tetrahydro-1H-benzofuro[3′,2′:4,5]pyrimido[1,2-a]cyclopenta[f][1,4]diazepine-4,13(2H,14aH)-dione] |  | 0.03 µM | 54.1% |  |  |
| CN1Cc2nc3c(oc4cc(C(F)(F)F)ccc43)c(=O)n2[C@@H]2CCC[C@H]2C1=O [Example 6] |  | 0.03 µM |  |  | 67.7% |
| CN1Cc2nc3sc4c(c3c(=O)n2[C@@H]2CCC[C@@H]2C1=O)CCN(CC(F)F)C4 [Example 7, (3aS,14aR)-10-(2,2-difluoroethyl)-5-methyl-2,3,3a,5,6,9,10,11,12,14a-decahydro-1H-cyclopenta[f]pyrido[4″,3″:4′,5′]thieno[2′,3′:4,5]pyrimido[1,2-a][1,4]diazepine-4,13-dione] | 76.6% | 0.3 µM |  |  |  |
| COCCN1CCc2c(sc3nc4n(c(=O)c23)[C@@H]2CCC[C@@H]2C(=O)N(C)C4)C1 [Example 8] | 71.8% | 0.03 µM |  |  |  |
| CN1Cc2nc3c(oc4cc(C(F)F)ccc43)c(=O)n2[C@@H]2CCC[C@@H]2C1=O [Example 9] | 112% | 0.03 µM |  |  |  |
| CN1CCc2c(sc3nc4n(c(=O)c23)C(C)(C)CC(=O)N2C[C@H](F)C[C@H]42)C1 [Example 10, (2R,15bR)-2-fluoro-7,7,12-trimethyl-1,2,3,6,7,10,11,12,13,15b-decahydro-5H,9H-pyrido[4″,3″:4′,5′]thieno[2′3′:4,5]pyrimido[1,2-a]pyrrolo[2,1-c][1,4]diazepine-5,9-dione] |  | 0.03 µM | 50.6% |  |  |
| CN1CCc2c(sc3nc4n(c(=O)c23)[C@H]2COC[C@H]2C(=O)N(C)C4)C1 [Example 11, (+)-(3a,14a-cis)-5,10-dimethyl-1,3,3a,5,6,9,10,11,12,14a-decahydrofuro[3,4-f]pyrido[4″,3″:4′,5′]thieno[2′,3′:4,5]pyrimido[1,2-a][1,4]diazepine-4,13-dione] |  | 0.03 µM | 54.7% |  |  |
| CN1Cc2nc3c(oc4cc(C(F)(F)F)ccc43)c(=O)n2[C@H]2CCC[C@@H]2C1=O [Example 12, (3aS,14aS)-5-methyl-10-(trifluoromethyl)-2,3,3a,5,6,14a-hexahydro-1H-benzofuro[3′,2′:4,5]pyrimido[1,2-a]cyclopenta[f][1,4]diazepine-4,13-dione] |  | 0.03 µM | 44.7% |  |  |
| CN1CCc2sc3c(=O)n4c(nc3c2C1)CN(C)C(=O)[C@@H]1CCC[C@H]14 [Example 14, (3aR,14aR)-5,9-dimethyl-2,3,3a,5,6,8,9,10,11,14a-decahydro-1H-cyclopenta[f]pyrido[3″,4″:4′,5′]thieno[3′,2′:4,5]pyrimido[1,2-a][1,4]diazepine-4,13-dione] |  | 0.03 µM | 63.6% |  |  |
